The subject of series [1] is ATCC3034. Briefly: Cell viability, medulloblastoma ATCC3034. In kind it is cell-based. Particulars: medulloblastoma cell line. How it is done: (§1) The anti-cancer efficacy of exemplary compounds of the application were assessed in vitro against different cancer cell lines. Cell viability was examined following treatment at various concentrations of inhibitor (0.097656-50 μM) using a CellTiter-Blue® cell viability assay. 1×10^4 cells/well were plated in 96-well assay plates in culture medium. All cells were grown in DMEM, IMDM and RPMI-1640 supplemented with 10% fetal bovine serum (FBS). In some instances, FBS was removed for periods ranging from 16-24 hours, and re-introduced with test compound addition. After 24 hrs, test compounds and vehicle controls were added to appropriate wells such that the final volume was 100 μl in each well. The cells were cultured for the desired test exposure period (72 hours) at 37° C. and 5% CO2. The assay plates were removed from […] incubator and 20 μl/well of CellTiter-Blue® Reagent was added. The plates were incubated using standard cell culture conditions for 1-4 hours. Afterwards, the plates were shaken for 10 seconds and florescence was recorded at 560/590 nm using a Cytation 3 spectrophotometer. IC50 values were determined using non-linear regression analysis with GraphPad Prism 6.0 (GraphPad Software Inc.). […]

Series [2] concerns OCI-AML3. The series can be described thus: Cell viability, AML OCI-AML3. It counts as cell-based. As to conditions: Homo sapiens, OCI-AML-3, Table 4. As to the method: as §1
Series [3] concerns the target hERG channel (Homo sapiens, UniProt Q12809). The series can be described thus: cell-based.
The test system of series [4] is A-172. The series can be described thus: Cell viability, glioblastoma A-172. It counts as cell-based. As to conditions: Homo sapiens, glioblastoma cell line. How it is done: (§2) The anti-cancer efficacy of exemplary compounds of the application were assessed in vitro against different cancer cell lines. […] 1×10^4 cells/well were plated in 96-well assay plates in culture medium. […] In some instances, FBS was removed for periods ranging from 16-24 hours, and re-introduced with test compound addition. After 24 hrs, test compounds and vehicle controls were added to appropriate wells such that the final volume was 100 μl in each well. The cells were cultured for the desired test exposure period (72 hours) at 37° C. and 5% CO2. The assay plates were removed from […] incubator and 20 μl/well of CellTiter-Blue® Reagent was added. The plates were incubated using standard cell culture conditions for 1-4 hours. Afterwards, the plates were shaken for 10 seconds and florescence was recorded at 560/590 nm using a Cytation 3 spectrophotometer. IC50 values were determined using non-linear regression analysis with GraphPad Prism 6.0 (GraphPad Software Inc.).

The subject of series [5] is AR230R. The series can be described thus: Cell viability, CML AR230R. As to conditions: Table 4. In kind it is cell-based. How it is done: as §1
A short description of series [6]: in vitro. Particulars: male, mouse. How it is done: The reaction mixture was constituted with 100 mM phosphate buffer, ultra-pure H2O, 5 mM MgCl2 solution, 10 mM NADPH solution and 1 mg/mL S9 fraction. This mixture was then pre-warmed at 37° C. for 5 minutes. […] Aliquots of 50 μL were taken from the reaction solution at 0, 15, 30, 45 and 60 minutes. The aliquoted reaction solutions were stopped by the addition of a mixture of cold methanol and IS (100 nM alprazolam, 200 nM imipramine, 200 nM labetalol and 2 μM ketoprofen). The samples were then centrifuged at 3220 g for 40 minutes. Afterwards, aliquots of 90 μL of the supernatant for each sample was mixed with 90 μL of ultra-pure water and subjected to liquid chromatography tandem mass spectrometry (LC-MS/MS) analysis.
Injection volume was 10 μL.

The test system of series [7] is MOLM14. The series can be described thus: Cell viability, AML MOLM14. It counts as cell-based. Particulars: Homo sapiens, MOLM-14, Table 4. As to the method: as §1
The subject of series [8] is healthy human lung cells (MRC9). The series can be described thus: CellTiter-Blue cell viability, MRC9. As to conditions: non-cancerous, 72 hours. It counts as cell-based. In outline:
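Cells were seeded at 1×10^4/well, grown 24 h in FBS-supplemented medium, then exposed to compound (0.097656–50 μM) for 72 h at 37° C, 5% CO2. Viability was read by CellTiter-Blue fluorescence (560/590 nm) after 1–4 h reagent incubation, with IC50 derived by non-linear regression.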
On the technique in general: Alamar Blue is a resazurin reagent that responds to reducing activity.

The subject of series [9] is LN-229. Briefly: Cell viability, glioblastoma LN-229. As to conditions: Homo sapiens, glioblastoma cell line. In kind it is cell-based. How it is done: as §2
In series [10] the test system is D425. Briefly: Cell viability, medulloblastoma D425. It counts as cell-based. As to conditions: medulloblastoma cell line. As to the method:
as §1

Experimental findings from patent publication US20200277268A1, “PENTAFLUOROPHENYL SULFONAMIDE COMPOUNDS, COMPOSITIONS AND USES THEREOF” (DALRIADA THERAPEUTICS INC., priority 2017, published 2020) are described below.

Each structure is given as a SMILES string.

Sequence of hERG channel (Q12809 whole entry): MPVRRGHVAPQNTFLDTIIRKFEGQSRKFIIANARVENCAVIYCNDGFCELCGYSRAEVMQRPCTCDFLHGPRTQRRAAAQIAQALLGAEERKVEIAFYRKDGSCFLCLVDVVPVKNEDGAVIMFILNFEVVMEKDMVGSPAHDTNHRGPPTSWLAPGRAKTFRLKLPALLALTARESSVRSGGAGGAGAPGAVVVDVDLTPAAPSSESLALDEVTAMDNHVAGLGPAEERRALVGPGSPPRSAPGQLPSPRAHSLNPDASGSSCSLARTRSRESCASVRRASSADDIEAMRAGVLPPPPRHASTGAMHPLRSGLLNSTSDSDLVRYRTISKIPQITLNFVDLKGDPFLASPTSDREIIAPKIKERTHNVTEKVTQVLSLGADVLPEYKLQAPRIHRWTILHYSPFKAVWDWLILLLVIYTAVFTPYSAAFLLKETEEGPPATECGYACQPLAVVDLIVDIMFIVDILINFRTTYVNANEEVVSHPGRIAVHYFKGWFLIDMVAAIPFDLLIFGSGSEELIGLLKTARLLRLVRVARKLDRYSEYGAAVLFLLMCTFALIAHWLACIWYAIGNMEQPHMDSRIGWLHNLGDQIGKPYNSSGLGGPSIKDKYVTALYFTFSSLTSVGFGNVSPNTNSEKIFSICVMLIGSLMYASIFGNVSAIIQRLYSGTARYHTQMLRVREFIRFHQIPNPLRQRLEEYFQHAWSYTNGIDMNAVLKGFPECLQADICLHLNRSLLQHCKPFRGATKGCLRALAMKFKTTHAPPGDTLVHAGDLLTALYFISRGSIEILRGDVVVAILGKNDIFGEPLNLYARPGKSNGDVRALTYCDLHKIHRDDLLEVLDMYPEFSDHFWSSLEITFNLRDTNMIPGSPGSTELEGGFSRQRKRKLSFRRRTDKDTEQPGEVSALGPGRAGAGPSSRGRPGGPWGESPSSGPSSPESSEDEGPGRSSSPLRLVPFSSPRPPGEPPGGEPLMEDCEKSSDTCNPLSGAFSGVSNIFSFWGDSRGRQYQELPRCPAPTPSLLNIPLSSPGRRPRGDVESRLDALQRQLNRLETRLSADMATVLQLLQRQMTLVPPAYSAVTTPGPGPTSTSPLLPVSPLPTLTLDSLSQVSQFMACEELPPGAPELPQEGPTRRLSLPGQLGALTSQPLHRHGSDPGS

Usually IC50 stands for the midpoint of a concentration-inhibition curve. High values mean lower potency, low ones higher potency. The term half-life denotes how long it takes for the measured level to halve. A high value points to slow decline. As usually defined, the microsomal CLint is the rate of metabolic loss divided by the concentration. Higher therefore signals faster metabolism. `O=S(=O)(c1c(F)c(F)c(F)c(F)c1F)N(Cc1ccc(F)cc1)C1CC1` [Compound I-1, N-cyclopropyl-2,3,4,5,6-pentafluoro-N-(4-fluorobenzyl)benzenesulfonamide]: the IC50 in series [1] is 0.8 µM; in [2], 5.6 µM; in [3] it was 17.3 µM; in series [4] it was 7.16 µM; in series [5], 1.5 µM; in series [7], 1.7 to 2.5 µM. In addition, the results for the IC50 in [8], in series [9] and in [10] were 25 µM, 3.03 µM and 0.8 µM, respectively. Besides, the half-life at 2 μM in series [6] (s9) is 232 h. The same molecule gave a microsomal CLint at 2 μM in series [6] (s9) of 0.05 µL/min/mg. Further, the “Remaining Percentage 0 min” value in series [6] (s9, 0 h, 2 μM) stood at 100.00%.
